Data published in the supplement of paper PMC10627819.

Assays:
Assay in all cases: fitness (endpoint OD595 vs no drug) (fraction); higher = more growth
S. aureus Newman = system: S. aureus Newman
Procedure, shortened: (§1)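 With the first reading as background, OD595 was measured every 30 min for 14 h in 384-well plates kept at 37 °C and inoculated at OD595 0.01. TSB, LB Lennox or CY was the medium. Fitness is the optical density at the transition into stationary phase divided by the robust mean of no-drug control wells, with a cap of 1.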

B. subtilis 168 = system: B. subtilis 168
Procedure, shortened: as §1

S. pneumoniae D39V = system: S. pneumoniae D39V
Procedure, shortened: as §1

[1] = first compound 0.0098 µg/mL, partner 0.5 µg/mL
[2] = first compound 0.0195 µg/mL, partner 0.5 µg/mL
[3] = first compound 0.039 µg/mL, partner 0.5 µg/mL
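Further: OD595 on entry to stationary phase over no-drug wells; at most 1.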

CO/N=C(\C(=O)N[C@@H]1C(=O)N2C(C(=O)O)=C(COC(N)=O)CS[C@H]12)c1ccco1 [Cefuroxime] + N[C@@H]1CONC1=O [Cycloserine D]
fitness (S. aureus Newman; first compound 0.04875 µg/mL, partner 0.375 µg/mL, one replicate): 0.926
fitness (S. aureus Newman; first compound 0.04875 µg/mL, partner 0.75 µg/mL, one replicate): 0.965
fitness (S. aureus Newman; first compound 0.04875 µg/mL, partner 1.5 µg/mL, one replicate): 0.871
fitness (S. aureus Newman; first compound 0.0975 µg/mL, partner 0.375 µg/mL, one replicate): 0.887
fitness (S. aureus Newman; first compound 0.0975 µg/mL, partner 0.75 µg/mL, one replicate): 0.822
fitness (S. aureus Newman; first compound 0.0975 µg/mL, partner 1.5 µg/mL, one replicate): 0.861
fitness (S. aureus Newman; first compound 0.195 µg/mL, partner 0.375 µg/mL, one replicate): 0.935
fitness (S. aureus Newman; first compound 0.195 µg/mL, partner 0.75 µg/mL, one replicate): 0.908
fitness (S. aureus Newman; first compound 0.195 µg/mL, partner 1.5 µg/mL, one replicate): 0.976
fitness (B. subtilis 168; first compound 0.0975 µg/mL, partner 0.125 µg/mL): 0.677
fitness (B. subtilis 168; first compound 0.0975 µg/mL, partner 0.25 µg/mL): 0.63
fitness (B. subtilis 168; first compound 0.0975 µg/mL, partner 0.5 µg/mL): 0.648
fitness (B. subtilis 168; first compound 0.195 µg/mL, partner 0.125 µg/mL): 0.396
fitness (B. subtilis 168; first compound 0.195 µg/mL, partner 0.25 µg/mL): 0.41
fitness (B. subtilis 168; first compound 0.195 µg/mL, partner 0.5 µg/mL): 0.372
fitness (B. subtilis 168; first compound 0.39 µg/mL, partner 0.125 µg/mL, one replicate): 0.337
fitness (B. subtilis 168; first compound 0.39 µg/mL, partner 0.25 µg/mL, one replicate): 0.404
fitness (B. subtilis 168; first compound 0.39 µg/mL, partner 0.5 µg/mL, one replicate): 0.306
fitness (B. subtilis 168; first compound 0.78 µg/mL, partner 0.125 µg/mL, one replicate): 0.303
fitness (B. subtilis 168; first compound 0.78 µg/mL, partner 0.25 µg/mL, one replicate): 0.319
fitness (B. subtilis 168; first compound 0.78 µg/mL, partner 0.5 µg/mL, one replicate): 0.284
fitness (B. subtilis 168; first compound 1.562 µg/mL, partner 0.125 µg/mL, one replicate): 0.361
fitness (B. subtilis 168; first compound 1.562 µg/mL, partner 0.25 µg/mL, one replicate): 0.305
fitness (B. subtilis 168; first compound 1.562 µg/mL, partner 0.5 µg/mL, one replicate): 0.228
fitness (B. subtilis 168; first compound 3.125 µg/mL, partner 0.125 µg/mL, one replicate): 0.287
fitness (B. subtilis 168; first compound 3.125 µg/mL, partner 0.25 µg/mL, one replicate): 0.22
fitness (B. subtilis 168; first compound 3.125 µg/mL, partner 0.5 µg/mL, one replicate): 0.204
fitness (B. subtilis 168; first compound 6.25 µg/mL, partner 0.125 µg/mL, one replicate): 0.201
fitness (B. subtilis 168; first compound 6.25 µg/mL, partner 0.25 µg/mL, one replicate): 0.173
fitness (B. subtilis 168; first compound 6.25 µg/mL, partner 0.5 µg/mL, one replicate): 0.111

O=C(O)c1cn(C2CC2)c2cc(N3CCNCC3)c(F)cc2c1=O [Ciprofloxacin] + CC1=C(C(=O)O)N2C(=O)[C@@H](NC(=O)[C@H](N)c3ccccc3)[C@H]2SC1 [Cephalexin]
fitness (S. aureus Newman; first compound 0.0375 µg/mL, partner 0.25 µg/mL): 0.732
fitness (S. aureus Newman; first compound 0.0375 µg/mL, partner 0.5 µg/mL): 0.77
fitness (S. aureus Newman; first compound 0.0375 µg/mL, partner 1 µg/mL): 0.753
fitness (S. aureus Newman; first compound 0.075 µg/mL, partner 0.25 µg/mL): 0.727
fitness (S. aureus Newman; first compound 0.075 µg/mL, partner 0.5 µg/mL): 0.725
fitness (S. aureus Newman; first compound 0.075 µg/mL, partner 1 µg/mL): 0.733
fitness (B. subtilis 168; first compound 0.0098 µg/mL, partner 0.125 µg/mL): 0.886
fitness (B. subtilis 168; first compound 0.0098 µg/mL, partner 0.25 µg/mL): 0.88
fitness (B. subtilis 168; [1]): 0.829
fitness (B. subtilis 168; first compound 0.0098 µg/mL, partner 1 µg/mL, one replicate): 0.951
fitness (B. subtilis 168; first compound 0.0195 µg/mL, partner 0.125 µg/mL): 0.69
fitness (B. subtilis 168; first compound 0.0195 µg/mL, partner 0.25 µg/mL): 0.68
fitness (B. subtilis 168; [2]): 0.705
fitness (B. subtilis 168; first compound 0.0195 µg/mL, partner 1 µg/mL, one replicate): 0.75
fitness (B. subtilis 168; first compound 0.039 µg/mL, partner 0.125 µg/mL): 0.0501
fitness (B. subtilis 168; first compound 0.039 µg/mL, partner 0.25 µg/mL): 0.0506
fitness (B. subtilis 168; [3]): 0.062
fitness (B. subtilis 168; first compound 0.039 µg/mL, partner 1 µg/mL, one replicate): 0.183
fitness (S. pneumoniae D39V; first compound 0.125 µg/mL, partner 0.125 µg/mL, one replicate): ≥ 1
fitness (S. pneumoniae D39V; first compound 0.125 µg/mL, partner 0.25 µg/mL, one replicate): 0.996
fitness (S. pneumoniae D39V; first compound 0.125 µg/mL, partner 0.5 µg/mL, one replicate): 0.942
fitness (S. pneumoniae D39V; first compound 0.125 µg/mL, partner 2 µg/mL): 0.0158
fitness (S. pneumoniae D39V; first compound 0.125 µg/mL, partner 4 µg/mL): 0.0138
fitness (S. pneumoniae D39V; first compound 0.25 µg/mL, partner 0.125 µg/mL, one replicate): 0.82
fitness (S. pneumoniae D39V; first compound 0.25 µg/mL, partner 0.25 µg/mL, one replicate): 0.849
fitness (S. pneumoniae D39V; first compound 0.25 µg/mL, partner 0.5 µg/mL, one replicate): 0.886
fitness (S. pneumoniae D39V; first compound 0.25 µg/mL, partner 1 µg/mL, one replicate): 0.686
fitness (S. pneumoniae D39V; first compound 0.25 µg/mL, partner 2 µg/mL, one replicate): 0
fitness (S. pneumoniae D39V; first compound 0.25 µg/mL, partner 4 µg/mL, one replicate): 0
fitness (S. pneumoniae D39V; first compound 0.5 µg/mL, partner 0.125 µg/mL, one replicate): 0.473
fitness (S. pneumoniae D39V; first compound 0.5 µg/mL, partner 0.25 µg/mL, one replicate): 0.552
fitness (S. pneumoniae D39V; first compound 0.5 µg/mL, partner 0.5 µg/mL, one replicate): 0.583
fitness (S. pneumoniae D39V; first compound 0.5 µg/mL, partner 2 µg/mL): 0.0332
fitness (S. pneumoniae D39V; first compound 0.5 µg/mL, partner 4 µg/mL): 0.0303

O=C(O)c1cn(C2CC2)c2cc(N3CCNCC3)c(F)cc2c1=O [Ciprofloxacin] + CO/N=C(\C(=O)N[C@@H]1C(=O)N2C(C(=O)O)=C(COC(C)=O)CS[C@H]12)c1csc(N)n1 [Cefotaxime]
fitness (S. aureus Newman; first compound 0.0375 µg/mL, partner 0.039 µg/mL, one replicate): 0.633
fitness (S. aureus Newman; first compound 0.0375 µg/mL, partner 0.078 µg/mL): 0.578
fitness (S. aureus Newman; first compound 0.0375 µg/mL, partner 0.156 µg/mL): 0.489
fitness (S. aureus Newman; first compound 0.0375 µg/mL, partner 0.312 µg/mL, one replicate): 0.217
fitness (S. aureus Newman; first compound 0.0375 µg/mL, partner 0.625 µg/mL): 0.0622
fitness (S. aureus Newman; first compound 0.0375 µg/mL, partner 1.25 µg/mL): 0.0267
fitness (S. aureus Newman; first compound 0.0375 µg/mL, partner 2.5 µg/mL): 0.0312
fitness (S. aureus Newman; first compound 0.075 µg/mL, partner 0.039 µg/mL, one replicate): 0.691
fitness (S. aureus Newman; first compound 0.075 µg/mL, partner 0.078 µg/mL): 0.518
fitness (S. aureus Newman; first compound 0.075 µg/mL, partner 0.312 µg/mL, one replicate): 0.0389
fitness (S. aureus Newman; first compound 0.075 µg/mL, partner 0.625 µg/mL): 0.0809
fitness (S. aureus Newman; first compound 0.075 µg/mL, partner 1.25 µg/mL): 0.0731
fitness (S. aureus Newman; first compound 0.075 µg/mL, partner 2.5 µg/mL): 0.0893
fitness (S. aureus Newman; first compound 0.15 µg/mL, partner 0.039 µg/mL, one replicate): 0.0625
fitness (S. aureus Newman; first compound 0.15 µg/mL, partner 0.078 µg/mL): 0.0493
fitness (S. aureus Newman; first compound 0.15 µg/mL, partner 0.156 µg/mL): 0.0219
fitness (S. aureus Newman; first compound 0.15 µg/mL, partner 0.312 µg/mL, one replicate): 0.0381
fitness (S. aureus Newman; first compound 0.15 µg/mL, partner 0.625 µg/mL): 0.0244
fitness (S. aureus Newman; first compound 0.15 µg/mL, partner 1.25 µg/mL): 0.0309
fitness (S. aureus Newman; first compound 0.15 µg/mL, partner 2.5 µg/mL): 0.0543
fitness (B. subtilis 168; first compound 0.0098 µg/mL, partner 0.00775 µg/mL, one replicate): 0.764
fitness (B. subtilis 168; first compound 0.0098 µg/mL, partner 0.0155 µg/mL, one replicate): 0.594
fitness (B. subtilis 168; first compound 0.0098 µg/mL, partner 0.031 µg/mL, one replicate): 0.347
fitness (B. subtilis 168; first compound 0.0098 µg/mL, partner 0.0625 µg/mL, one replicate): 0.475
fitness (B. subtilis 168; first compound 0.0098 µg/mL, partner 0.125 µg/mL, one replicate): 0.333
fitness (B. subtilis 168; first compound 0.0098 µg/mL, partner 0.25 µg/mL, one replicate): 0.263
fitness (B. subtilis 168; [1]): 0.141
fitness (B. subtilis 168; first compound 0.0098 µg/mL, partner 1 µg/mL): 0.0495
fitness (B. subtilis 168; first compound 0.0098 µg/mL, partner 2 µg/mL): 0.0625
fitness (B. subtilis 168; first compound 0.0195 µg/mL, partner 0.00775 µg/mL, one replicate): 0.546
fitness (B. subtilis 168; first compound 0.0195 µg/mL, partner 0.0155 µg/mL, one replicate): 0.205
fitness (B. subtilis 168; first compound 0.0195 µg/mL, partner 0.031 µg/mL, one replicate): 0.063
fitness (B. subtilis 168; first compound 0.0195 µg/mL, partner 0.0625 µg/mL, one replicate): 0.231
fitness (B. subtilis 168; first compound 0.0195 µg/mL, partner 0.125 µg/mL, one replicate): 0.129
fitness (B. subtilis 168; first compound 0.0195 µg/mL, partner 0.25 µg/mL, one replicate): 0.0436
fitness (B. subtilis 168; [2]): 0.0302
fitness (B. subtilis 168; first compound 0.0195 µg/mL, partner 1 µg/mL): 0.0272
fitness (B. subtilis 168; first compound 0.0195 µg/mL, partner 2 µg/mL): 0.0392
fitness (B. subtilis 168; first compound 0.039 µg/mL, partner 0.00775 µg/mL, one replicate): 0.0504
fitness (B. subtilis 168; first compound 0.039 µg/mL, partner 0.0155 µg/mL, one replicate): 0.0283
fitness (B. subtilis 168; first compound 0.039 µg/mL, partner 0.031 µg/mL, one replicate): 0.045
fitness (B. subtilis 168; first compound 0.039 µg/mL, partner 0.0625 µg/mL, one replicate): 0.0338
fitness (B. subtilis 168; first compound 0.039 µg/mL, partner 0.125 µg/mL, one replicate): 0.0283
fitness (B. subtilis 168; first compound 0.039 µg/mL, partner 0.25 µg/mL, one replicate): 0.0507
fitness (B. subtilis 168; [3]): 0.0615
fitness (B. subtilis 168; first compound 0.039 µg/mL, partner 1 µg/mL): 0.0416
fitness (B. subtilis 168; first compound 0.039 µg/mL, partner 2 µg/mL): 0.0569
fitness (S. pneumoniae D39V; first compound 0.125 µg/mL, partner 0.0018 µg/mL): 0.992
fitness (S. pneumoniae D39V; first compound 0.125 µg/mL, partner 0.0035 µg/mL): 0.95
fitness (S. pneumoniae D39V; first compound 0.25 µg/mL, partner 0.0018 µg/mL): 0.919
fitness (S. pneumoniae D39V; first compound 0.25 µg/mL, partner 0.0035 µg/mL): 0.962
fitness (S. pneumoniae D39V; first compound 0.25 µg/mL, partner 0.007 µg/mL): 0.873
fitness (S. pneumoniae D39V; first compound 0.5 µg/mL, partner 0.0018 µg/mL): 0.809
fitness (S. pneumoniae D39V; first compound 0.5 µg/mL, partner 0.0035 µg/mL): 0.803
